# Measurements as given in PubChem BioAssay AID1259407 (Chemical Carcinogenesis Research Information System (CCRIS), 2018).
# Calls of active or inactive are those of the source. How the calls were made is not given here.
# System: CCRIS mutagenicity, Ames/micronucleus/aberration tests
# Experiment: CCRIS mutagenicity studies
# [1] = Test System: AMES SALMONELLA TYPHIMURIUM, Strain/Indicator: TA98, Metabolic Activation: NONE, Method: PREINCUBATION
# [2] = Test System: AMES SALMONELLA TYPHIMURIUM, Strain/Indicator: TA100, Metabolic Activation: NONE, Method: PREINCUBATION
# [3] = Test System: AMES SALMONELLA TYPHIMURIUM, Strain/Indicator: TA1535, Metabolic Activation: NONE, Method: PREINCUBATION
structure (smiles),measurement,setting,value
CCCC(=O)Nc1ncnc2c1ncn2[C@@H]1O[C@@H]2COP(=O)(O)O[C@H]2[C@H]1OC(=O)CCC,mutagenic call,[1],inactive; negative
same,mutagenic call,"Test System: AMES SALMONELLA TYPHIMURIUM, Strain/Indicator: TA98, Metabolic Activation: RAT, LIVER, S-9, KC-500, Method: PREINCUBATION",inactive; negative
same,mutagenic call,[2],inactive; negative
same,mutagenic call,"Test System: AMES SALMONELLA TYPHIMURIUM, Strain/Indicator: TA100, Metabolic Activation: RAT, LIVER, S-9, KC-500, Method: PREINCUBATION",inactive; negative
same,mutagenic call,[3],inactive; negative
same,mutagenic call,"Test System: AMES SALMONELLA TYPHIMURIUM, Strain/Indicator: TA1535, Metabolic Activation: RAT, LIVER, S-9, KC-500, Method: PREINCUBATION",inactive; negative
same,mutagenic call,"Test System: AMES SALMONELLA TYPHIMURIUM, Strain/Indicator: TA1537, Metabolic Activation: NONE, Method: PREINCUBATION",inactive; negative
same,mutagenic call,"Test System: AMES SALMONELLA TYPHIMURIUM, Strain/Indicator: TA1537, Metabolic Activation: RAT, LIVER, S-9, KC-500, Method: PREINCUBATION",inactive; negative
same,mutagenic call,"Test System: AMES SALMONELLA TYPHIMURIUM, Strain/Indicator: TA1538, Metabolic Activation: NONE, Method: PREINCUBATION",inactive; negative
same,mutagenic call,"Test System: AMES SALMONELLA TYPHIMURIUM, Strain/Indicator: TA1538, Metabolic Activation: RAT, LIVER, S-9, KC-500, Method: PREINCUBATION",inactive; negative
same,mutagenic call,"Test System: E. COLI, Strain/Indicator: WP2 UVRA, Metabolic Activation: NONE, Method: PREINCUBATION",inactive; negative
same,mutagenic call,"Test System: E. COLI, Strain/Indicator: WP2 UVRA, Metabolic Activation: RAT, LIVER, S-9, KC-500, Method: PREINCUBATION",inactive; negative
CCC(C)Nc1ccc(NC(C)CC)cc1 (stereo not given),mutagenic call,"End Point: IN VITRO CHROMOSOMAL ABERRATIONS, Test System: CHINESE HAMSTER LUNG CELLS (CHL), Metabolic Activation: RAT, LIVER, S-9, KC-400",inactive; negative
same,mutagenic call,"End Point: IN VITRO CHROMOSOMAL ABERRATIONS, Test System: CHINESE HAMSTER OVARY CELLS (CHO), Metabolic Activation: NONE",inactive; negative
same,mutagenic call,"End Point: IN VITRO CHROMOSOMAL ABERRATIONS, Test System: CHINESE HAMSTER OVARY CELLS (CHO), Metabolic Activation: RAT, LIVER, S-9, AROCLOR 1254",inactive; negative
same,mutagenic call,"Test System: AMES SALMONELLA TYPHIMURIUM, Strain/Indicator: TA97, Metabolic Activation: HAMSTER, LIVER, S-9, AROCLOR 1254 (10%), Method: PREINCUBATION",inactive; negative
same,mutagenic call,"Test System: AMES SALMONELLA TYPHIMURIUM, Strain/Indicator: TA97, Metabolic Activation: HAMSTER, LIVER, S-9, AROCLOR 1254 (30%), Method: PREINCUBATION",inactive; negative
same,mutagenic call,"Test System: AMES SALMONELLA TYPHIMURIUM, Strain/Indicator: TA97, Metabolic Activation: NONE, Method: PREINCUBATION",inactive; negative
same,mutagenic call,"Test System: AMES SALMONELLA TYPHIMURIUM, Strain/Indicator: TA97, Metabolic Activation: RAT, LIVER, S-9, AROCLOR 1254 (10%), Method: PREINCUBATION",inactive; negative
same,mutagenic call,"Test System: AMES SALMONELLA TYPHIMURIUM, Strain/Indicator: TA97, Metabolic Activation: RAT, LIVER, S-9, AROCLOR 1254 (30%), Method: PREINCUBATION",inactive; negative
same,mutagenic call,"Test System: AMES SALMONELLA TYPHIMURIUM, Strain/Indicator: TA98, Metabolic Activation: HAMSTER, LIVER, S-9, AROCLOR 1254 (10%), Method: PREINCUBATION",inactive; negative
same,mutagenic call,"Test System: AMES SALMONELLA TYPHIMURIUM, Strain/Indicator: TA98, Metabolic Activation: HAMSTER, LIVER, S-9, AROCLOR 1254 (30%), Method: PREINCUBATION",inactive; negative
same,mutagenic call,[1],inactive; negative
same,mutagenic call,"Test System: AMES SALMONELLA TYPHIMURIUM, Strain/Indicator: TA98, Metabolic Activation: RAT, LIVER, S-9, AROCLOR 1254 (10%), Method: PREINCUBATION",inactive; negative
same,mutagenic call,"Test System: AMES SALMONELLA TYPHIMURIUM, Strain/Indicator: TA98, Metabolic Activation: RAT, LIVER, S-9, AROCLOR 1254 (30%), Method: PREINCUBATION",inactive; negative
same,mutagenic call,"Test System: AMES SALMONELLA TYPHIMURIUM, Strain/Indicator: TA100, Metabolic Activation: HAMSTER, LIVER, S-9, AROCLOR 1254 (5%), Method: PREINCUBATION",inactive; negative
same,mutagenic call,"Test System: AMES SALMONELLA TYPHIMURIUM, Strain/Indicator: TA100, Metabolic Activation: HAMSTER, LIVER, S-9, AROCLOR 1254 (10%), Method: PREINCUBATION",inactive; negative
same,mutagenic call,"Test System: AMES SALMONELLA TYPHIMURIUM, Strain/Indicator: TA100, Metabolic Activation: HAMSTER, LIVER, S-9, AROCLOR 1254 (30%), Method: PREINCUBATION",inactive; negative
same,mutagenic call,[2],inactive; negative
same,mutagenic call,"Test System: AMES SALMONELLA TYPHIMURIUM, Strain/Indicator: TA100, Metabolic Activation: RAT, LIVER, S-9, AROCLOR 1254 (5%), Method: PREINCUBATION",inactive; negative
same,mutagenic call,"Test System: AMES SALMONELLA TYPHIMURIUM, Strain/Indicator: TA100, Metabolic Activation: RAT, LIVER, S-9, AROCLOR 1254 (30%), Method: PREINCUBATION",inactive; negative
same,mutagenic call,"Test System: AMES SALMONELLA TYPHIMURIUM, Strain/Indicator: TA100, Metabolic Activation: RAT,LIVER, S-9, AROCLOR 1254 (10%), Method: PREINCUBATION",inactive; negative
same,mutagenic call,"Test System: AMES SALMONELLA TYPHIMURIUM, Strain/Indicator: TA1535, Metabolic Activation: HAMSTER, LIVER, S-9, AROCLOR 1254 (10%), Method: PREINCUBATION",inactive; negative
same,mutagenic call,"Test System: AMES SALMONELLA TYPHIMURIUM, Strain/Indicator: TA1535, Metabolic Activation: HAMSTER, LIVER, S-9, AROCLOR 1254 (30%), Method: PREINCUBATION",inactive; negative
same,mutagenic call,[3],inactive; negative
same,mutagenic call,"Test System: AMES SALMONELLA TYPHIMURIUM, Strain/Indicator: TA1535, Metabolic Activation: RAT, LIVER, S-9, AROCLOR 1254 (10%), Method: PREINCUBATION",inactive; negative
same,mutagenic call,"Test System: AMES SALMONELLA TYPHIMURIUM, Strain/Indicator: TA1535, Metabolic Activation: RAT, LIVER, S-9, AROCLOR 1254 (30%), Method: PREINCUBATION",inactive; negative
O=[N+]([O-])c1cccc(-c2ccccc2)c1O,mutagenic call,[1],inactive; negative
CCOC(=O)NC,mutagenic call,"Test System: MOUSE LYMPHOMA, Strain/Indicator: L5178Y (TK+/TK-), Metabolic Activation: NONE, Method: SUSPENSION/PLATE",inactive; negative
same,mutagenic call,"Test System: MOUSE LYMPHOMA, Strain/Indicator: L5178Y (TK+/TK-), Metabolic Activation: RAT, LIVER, S-9, AROCLOR 1254, Method: SUSPENSION/PLATE",active; positive
Cc1ccc(C(O)(P(=O)(O)O)P(=O)(O)O)cc1N(CCCl)CCCl,mutagenic call,"Test System: AMES SALMONELLA TYPHIMURIUM, Strain/Indicator: TA98, Metabolic Activation: NONE, Method: STANDARD PLATE",inactive; negative
same,mutagenic call,"Test System: AMES SALMONELLA TYPHIMURIUM, Strain/Indicator: TA98, Metabolic Activation: RAT, LIVER, S-9, AROCLOR, Method: STANDARD PLATE",inactive; negative
same,mutagenic call,"Test System: AMES SALMONELLA TYPHIMURIUM, Strain/Indicator: TA100, Metabolic Activation: NONE, Method: STANDARD PLATE",inactive; negative
same,mutagenic call,"Test System: AMES SALMONELLA TYPHIMURIUM, Strain/Indicator: TA100, Metabolic Activation: RAT, LIVER, S-9, AROCLOR, Method: STANDARD PLATE",inactive; negative
same,mutagenic call,"Test System: AMES SALMONELLA TYPHIMURIUM, Strain/Indicator: TA1535, Metabolic Activation: NONE, Method: STANDARD PLATE",inactive; negative
same,mutagenic call,"Test System: AMES SALMONELLA TYPHIMURIUM, Strain/Indicator: TA1535, Metabolic Activation: RAT, LIVER, S-9, AROCLOR, Method: STANDARD PLATE",active; positive
same,mutagenic call,"Test System: AMES SALMONELLA TYPHIMURIUM, Strain/Indicator: TA1537, Metabolic Activation: NONE, Method: STANDARD PLATE",inactive; negative
same,mutagenic call,"Test System: AMES SALMONELLA TYPHIMURIUM, Strain/Indicator: TA1537, Metabolic Activation: RAT, LIVER, S-9, AROCLOR, Method: STANDARD PLATE",inactive; negative
same,mutagenic call,"Test System: AMES SALMONELLA TYPHIMURIUM, Strain/Indicator: TA1538, Metabolic Activation: NONE, Method: STANDARD PLATE",inactive; negative
same,mutagenic call,"Test System: AMES SALMONELLA TYPHIMURIUM, Strain/Indicator: TA1538, Metabolic Activation: RAT, LIVER, S-9, AROCLOR, Method: STANDARD PLATE",inactive; negative
